Experimental data reported in publication PMC10774165, “Correlating sugar transporter expression and activities to identify transporters for an orphan sugar substrate” (Applied Microbiology and Biotechnology, 2024).

How the values were obtained:
Assay type in all cases: cell-based
NCU00809 [1] = molecular target: T1, NCU00809 (Neurospora crassa, UniProt Q7SEC5); assay: growth of transporter-expressing yeast on the sugar; details: S. cerevisiae EBY.VW4000
T1 construct: full-length cDNA in p426H7, expressed in S. cerevisiae EBY.VW4000 with K. lactis LAC4

CDT-1 = molecular target: T2, CDT-1 (Neurospora crassa, UniProt Q7SCU1); assay: growth of transporter-expressing yeast on the sugar as sole carbon source; details: 0.2% or 2% lactose, 30 °C, 3 days, coexpressed K. lactis Lac4; uptake also reduced in N. crassa deletion mutant
T2 construct: full-length cDNA in p426H7, expressed in S. cerevisiae EBY.VW4000 (with K. lactis LAC4 for lactose)

NCU00809 [2] = molecular target: T1, NCU00809; assay: as above; details: 0.2% or 2% lactose, 30 °C, 3 days, coexpressed K. lactis Lac4; uptake also reduced in N. crassa deletion mutant
CDT-2 = molecular target: T3, CDT-2 (Neurospora crassa, UniProt Q7SD12); assay: as above; details: 0.2% or 2% lactose, 30 °C, 3 days, coexpressed K. lactis Lac4; uptake also reduced in N. crassa deletion mutant
T3 construct: full-length cDNA in p426H7, expressed in S. cerevisiae EBY.VW4000 with K. lactis LAC4

NCU08052 = molecular target: T4, NCU08052 (Neurospora crassa, UniProt Q7SGN1); assay: glycerol uptake by N. crassa wild type versus deletion mutant; details: after induction in arabinose, 20 min
T4 construct: native protein in N. crassa mycelium, wild type versus deletion mutant
T4 sequence (Q7SGN1 entry or part of it): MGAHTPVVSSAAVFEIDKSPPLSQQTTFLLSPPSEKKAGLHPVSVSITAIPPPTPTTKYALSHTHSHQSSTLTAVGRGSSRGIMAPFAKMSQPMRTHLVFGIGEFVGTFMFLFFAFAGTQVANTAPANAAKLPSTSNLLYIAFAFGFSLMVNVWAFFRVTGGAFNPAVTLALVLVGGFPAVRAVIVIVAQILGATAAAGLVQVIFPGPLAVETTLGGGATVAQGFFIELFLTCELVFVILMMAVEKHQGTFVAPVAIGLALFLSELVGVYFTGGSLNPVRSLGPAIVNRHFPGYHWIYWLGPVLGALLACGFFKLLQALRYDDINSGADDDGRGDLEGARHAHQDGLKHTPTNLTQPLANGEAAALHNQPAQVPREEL

T1 sequence (Q7SEC5 1-547): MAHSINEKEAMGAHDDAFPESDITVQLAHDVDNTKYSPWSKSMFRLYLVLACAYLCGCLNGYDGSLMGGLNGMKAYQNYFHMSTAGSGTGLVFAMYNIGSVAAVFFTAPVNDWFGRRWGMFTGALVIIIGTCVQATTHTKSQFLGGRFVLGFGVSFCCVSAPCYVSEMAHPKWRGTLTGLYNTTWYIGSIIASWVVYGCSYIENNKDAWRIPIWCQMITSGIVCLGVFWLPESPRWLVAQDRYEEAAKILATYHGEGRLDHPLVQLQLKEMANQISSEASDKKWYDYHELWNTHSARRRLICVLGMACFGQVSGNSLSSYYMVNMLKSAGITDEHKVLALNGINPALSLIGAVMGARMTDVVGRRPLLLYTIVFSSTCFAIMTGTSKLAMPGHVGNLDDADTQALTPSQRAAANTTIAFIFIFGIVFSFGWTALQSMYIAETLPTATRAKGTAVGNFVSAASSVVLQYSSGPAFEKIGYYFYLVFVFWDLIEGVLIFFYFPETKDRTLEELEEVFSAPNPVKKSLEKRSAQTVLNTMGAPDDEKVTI
T3 sequence (Q7SD12 entry or part of it): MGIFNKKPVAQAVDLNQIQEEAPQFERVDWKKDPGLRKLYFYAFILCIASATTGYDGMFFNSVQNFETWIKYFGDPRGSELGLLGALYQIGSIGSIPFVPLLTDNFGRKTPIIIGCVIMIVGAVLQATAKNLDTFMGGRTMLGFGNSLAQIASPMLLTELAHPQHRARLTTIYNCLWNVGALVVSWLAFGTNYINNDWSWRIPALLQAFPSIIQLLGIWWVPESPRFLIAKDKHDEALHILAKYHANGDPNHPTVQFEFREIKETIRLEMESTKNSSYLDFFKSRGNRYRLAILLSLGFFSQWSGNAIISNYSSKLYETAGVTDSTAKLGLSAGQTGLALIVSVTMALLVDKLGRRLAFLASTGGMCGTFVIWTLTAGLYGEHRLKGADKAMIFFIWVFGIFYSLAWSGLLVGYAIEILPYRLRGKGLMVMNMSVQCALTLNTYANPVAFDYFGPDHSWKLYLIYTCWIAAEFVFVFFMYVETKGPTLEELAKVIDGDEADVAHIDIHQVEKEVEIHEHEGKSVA
T2 sequence (Q7SCU1 entry or part of it): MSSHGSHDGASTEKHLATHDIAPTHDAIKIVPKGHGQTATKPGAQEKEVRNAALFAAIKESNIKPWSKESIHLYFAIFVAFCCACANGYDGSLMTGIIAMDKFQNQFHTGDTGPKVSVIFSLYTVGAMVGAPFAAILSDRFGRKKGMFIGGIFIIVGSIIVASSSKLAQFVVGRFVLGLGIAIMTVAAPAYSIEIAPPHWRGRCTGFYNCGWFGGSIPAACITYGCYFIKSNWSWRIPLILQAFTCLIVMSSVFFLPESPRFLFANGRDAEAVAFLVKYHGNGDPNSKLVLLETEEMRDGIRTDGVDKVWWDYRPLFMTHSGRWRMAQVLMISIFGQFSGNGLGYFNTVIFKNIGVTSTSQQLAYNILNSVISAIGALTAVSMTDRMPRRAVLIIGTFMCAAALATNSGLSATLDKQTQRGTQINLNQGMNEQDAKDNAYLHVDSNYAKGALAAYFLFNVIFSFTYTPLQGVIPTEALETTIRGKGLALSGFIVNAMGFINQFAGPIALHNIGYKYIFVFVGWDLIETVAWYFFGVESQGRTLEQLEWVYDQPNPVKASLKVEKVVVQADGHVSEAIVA

Structure (SMILES): OC[C@H]1OC(O)[C@H](O)[C@@H](O)[C@H]1O (stereo partly drawn) [D-galactose]
- growth of transporter-expressing yeast on the sugar (NCU00809 [1]): NCU00809 was found to display transport activity for D-galactose

Structure (SMILES): OC[C@H]1O[C@@H](O[C@H]2[C@H](O)[C@@H](O)C(O)O[C@@H]2CO)[C@H](O)[C@@H](O)[C@H]1O (stereo partly drawn) [lactose, β-D-galactopyranosyl-(1 → 4)-D-glucose]
- growth of transporter-expressing yeast on the sugar as sole carbon source (CDT-1): demonstrating that they are plasma membrane permeases that can transport lactose
- growth of transporter-expressing yeast on the sugar as sole carbon source (NCU00809 [2]): demonstrating that they are plasma membrane permeases that can transport lactose
- growth of transporter-expressing yeast on the sugar as sole carbon source (CDT-2): demonstrating that they are plasma membrane permeases that can transport lactose

Structure (SMILES): OCC(O)CO [glycerol]
- glycerol uptake by N. crassa wild type versus deletion mutant (NCU08052): a significantly reduced uptake rate in the respective deletion mutant
